The test system of series [1] is B16F10 mouse melanoma cells. The experiment in a line: Tumor cells B16F10 cellular growth IFNγ-induced inhibition assay (CellTiter-Glo). It is filed as cell-based. The settings on record: for pIC50 / IC50: B16-F10, 72 h; for pIC50: 3 days of incubation. How it is done: B16F10 mouse melanoma cells (ATCC Cat #CRL-6475) were seeded at a density of 500 cells per well in a 384-well clear bottom plate (Corning Cat #3712, Corning, N.Y.) in 40 μL total volume of DMEM+10% FBS (PanEco Cat #C420, Russia and Sigma Cat #F4135, St. Louis, MO). Cells were allowed to adhere overnight at 37° C., 5% CO2. On the following day, 250× solutions of compounds in DMSO (Sigma Cat #D2650) were prepared into Cmpnds plate (Diamond Well Plate, Axigen, Cat #P-384-120SQ-C-S) (final concentration of 1×) and DMSO only controls were included. Dilution Plate (Diamond Well Plate (Axigen, Cat #P-384-120SQ-C-S) was prepared by adding 49 μL of culture medium per well: half of the plate with culture medium only, half with culture medium+IFNγ (5 ng/ml). A 1 μL aliquot of 250× compounds (Cmpnds plate) was added to 49 μL of culture medium (Dilution plate), then a 10 μL aliquot of the mixture was transferred to Reaction plate with 40 μL of cells followed by centrifugation at 240 g for 1 min. After 3 days of incubation, 10 μL of CellTiter-Glo (Promega) was added to the cells, plates were centrifuged at 240 g for 1 min, and luminescence signal was measured. For each compound, the percent growth inhibition at every compound dose level was calculated relative to the “DMSO/with IFNγ” control and used to determine the IC50.
A general note: In ATP-based viability assays light output follows the ATP content of the culture.

In another series the target is GST-tagged PTPN2 protein (Homo sapiens (Human), UniProt P17706). The experiment in a line: Primary assay of PTPN2 enzymatic activity inhibition (DiFMUP fluorescence). It is filed as biochemical. The settings on record: PTPN2 0.004 ng/μL, DiFUMP substrate 2 μM, 60 min at rt. As for the experimental part: Compound activity was determined using GST-tagged PTPN2 protein (Cat #31592, ActiveMotif) (SEQ ID NO: 1) in an in vitro enzymatic reaction. The enzymatic reaction was carried out in assay buffer (50 mM HEPES Na salt pH 7.2-7.4, 2 mM EDTA, 100 mM NaCl, 52 ng/μL BSA, and 6 mM DTT). The compounds were dispensed on a 384 well Diamond Well Plate (Axigen, Cat #P-384-120SQ-C-S) using the Biomek FX liquid handling system at 100× solutions of compounds in DMSO. 2×PTPN2 (final concentration 0.004 ng/μL) was prepared in 1× Assay buffer and 25 μL of mixture per well was added into Reaction plate (Optiplate, black, Perkin Elmer, Cat #6007270). Add 25 μL of 1× buffer to Ctrl- (Substrate w/o PTPN2) wells followed by centrifugation at 100 g for 1 min. Next step the Compounds were added to Reaction plate using Biomek station via following steps: 3 μl of 100× compounds (in DMSO) were mixed with 27 μL of Assay Buffer, then 5 μL of this mixture was added to Reaction plate with 25 μL of PTPN2 Mix. Plates were centrifuged for 1 min at 100 g and incubated for another 10 min at rt. Finally, 20 μL of 2.5× Substrate (DiFUMP, Invitrogen™ Cat #D6567) mix was added into appropriate wells of Reaction plate to the final concentration of 2 μM, plate was centrifuged at 100 g for 1 min followed by incubation at rt for 60 min, and the Fluorescence Intensity was measured using a Microplate Reader (ClarioStar Plus, excitation 360 nm, emission 450 nm). The % inhibition was then used to calculate the Ki values. The Ki values are shown in Table A, wherein “A” corresponds to Ki<1.0 nm, “B” corresponds to 1.0 nm≤Ki<5.0 nm, “C” corresponds to 5.0 nm≤Ki<10.0 nm, “D” corresponds to 10.0 nm≤Ki<50.0 nm, and “E” corresponds to 50.0 nm≤Ki<100.0 nm, and “F” corresponds to 100.0 nm≤Ki.

Series [2] in a line: Pharmacokinetic (PK) study in mice, oral bioavailability. It is filed as in vivo, Male CD-1 mice. The settings on record: 10 mg/kg PO vs 2 mg/kg IV, 10% Ethanol, 30% PEG-400, 60% Phosal-50PG, form Solution. As for the experimental part:
Pharmacokinetic (PK) study in mice: Male CD-1 mice obtained from Charles River GmbH (Sulzfeld, Germany) with body weight ranging between 30 g to 40 g were used in the PK studies. Group of 12 mice were given a 2 mg/kg intravenous bolus (IV) dose of test article as a solution in 20% HP-beta-CD, and another group of 9 mice were given a 10 mg/kg oral (PO) dose of test article as a solution or suspension in [10% ethanol, 30% PEG-400 and 60% Phosal-50PG]. Blood samples (˜200 μL per time point) were collected twice from each animal—from orbital sinus and by cardiopuncture at 0.083, 0.25, 0.5, 1, 2, 4, 8 and 24 hours after IV administration, and at 0.5, 1, 2, 4, 8 and 24 hours after PO administration, 3 mice/time point. Blood samples were collected in tubes with Na-EDTA 0.5 M solution (1:10) and centrifuged for 10 min at 10,000 rpm at 2 to 8° C. to harvest plasma. Plasma samples were stored at −80° C. until LC/MS/MS analysis. Concentration in each plasma sample was determined by a non-validated LC/MS/MS. Data is acquired using multiple reaction monitoring (MRM) with specific transitions monitored for each compound. Pharmacokinetic Analysis: PK parameters were calculated by non-compartmental methods as described in Gibaldi and Perrier (Gibaldi and Perrier, 1982) using Phoenix® WinNonlin® version 6.3 (Certara L.P.). Following PO administration, percent bioavailability (Fabs) was determined by dividing the dose normalized mean area under the plasma concentration-time curve, extrapolated to the last time point (AUClast) obtained following PO dose by the mean dose normalized AUC of the animals dosed by IV injection. All PK parameters are presented as mean±standard deviation (SD). PK studies were conducted in mice for exemplary compounds of Formula (I). The percent bioavailability (Fabs) values determined are listed in Table C for certain compounds, together with the dosage, vehicle and form used in the studies.

Setting [3] is: B16F10, no IFNγ, read-out: IC50 no IFNγ.
Setting [4] is: B16F10, with IFNγ, read-out: IC50 + IFNγ.
Where [5] appears, read: B16-F10, B16F10, 100 μM compound, no IFNγ, read-out: % Growth Inhibition at 100 μM no IFNγ.
Setting [6] is: B16-F10, B16F10, 100 μM compound, with IFNγ, read-out: % Growth Inhibition at 100 μM + IFNγ.

What is called pIC50 is −log10 of the IC50, conventionally taken in molar units. As a reminder, the inhibition is the share of the control response that was lost under treatment. As usually defined, the pKi is the negative decadic logarithm of the Ki, by convention in mol/L. For orientation: IC50 means the concentration that inhibits the measured activity by half.

Structures are written as SMILES. pIC50, pKi: −log10 of the molar value. Where two headings read alike, the source gives them in different places. A value given as a limit tells only on which side of the number the result lay.

Sequence of GST-tagged PTPN2 protein (P17706 whole entry): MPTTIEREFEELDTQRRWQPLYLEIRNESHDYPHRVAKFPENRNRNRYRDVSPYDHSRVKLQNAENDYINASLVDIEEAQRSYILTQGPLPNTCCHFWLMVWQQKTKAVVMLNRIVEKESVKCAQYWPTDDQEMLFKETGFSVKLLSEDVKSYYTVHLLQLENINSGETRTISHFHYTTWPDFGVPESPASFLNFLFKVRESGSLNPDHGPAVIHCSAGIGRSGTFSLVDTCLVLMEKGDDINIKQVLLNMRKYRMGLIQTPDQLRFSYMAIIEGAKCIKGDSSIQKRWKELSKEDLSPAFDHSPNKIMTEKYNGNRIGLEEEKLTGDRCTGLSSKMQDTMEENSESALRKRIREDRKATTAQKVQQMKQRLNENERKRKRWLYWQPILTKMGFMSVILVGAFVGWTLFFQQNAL

With `O=C1CN(c2c(O)cc(NC3=NCCCN3)cc2F)S(=O)(=O)N1` [Compound 2, 5-[2-fluoro-6-hydroxy-4-(1,4,5,6-tetrahydropyrimidin-2-ylamino)phenyl]-1,1-dioxo-1,2,5-thiadiazolidin-3-one], the pIC50 in series [1] (setting [3]) is less than 4.00; in series [1] (setting [4]), more than 5.30. Further, the inhibition at 100 µM in series [1] (setting [5]) was in the range of 10 to 50%; in series [1] (setting [6]) it was 75 to 100%. Also, the negative-log Ki (pKi) on GST-tagged PTPN2 protein was 8.00 to 8.30.
With `CC1CCN=C(Nc2cc(O)c(N3CC(=O)NS3(=O)=O)c(F)c2)N1` (centres unmarked) [Compound 3, 5-[2-fluoro-6-hydroxy-4-[(6-methyl-1,4,5,6-tetrahydropyrimidin-2-yl)amino]phenyl]-1,1-dioxo-1,2,5-thiadiazolidin-3-one], the pIC50 is 4.30 to 5.00 in series [1] (setting [3]) and 5.00 to 5.30 in series [1] (setting [4]). Also, the inhibition at 100 µM in series [1] (setting [5]) was in the range of 10 to 50%; in series [1] (setting [6]), 50 to 75%. The pKi on GST-tagged PTPN2 protein is 7.30 to 8.00. Also, the “Fabs, %” value in series [2] was 12.5%.
Take `Cc1ccnc(Nc2cc(O)c(N3CC(=O)NS3(=O)=O)c(F)c2)n1` [Compound 4, 5-[2-fluoro-6-hydroxy-4-[(4-methylpyrimidin-2-yl)amino]phenyl]-1,1-dioxo-1,2,5-thiadiazolidin-3-one]: the IC50 in series [1] (read-out: IC50 + IFNγ (μM)) and in series [1] (read-out: IC50 no IFNγ (μM)) was more than 100 µM throughout. Further, the inhibition at 100 µM in series [1] (B16-F10, read-out: % Growth Inhibition at 100 μM + IFNγ) was in the range of 10 to 50%; in series [1] (B16-F10, read-out: % Growth Inhibition at 100 μM no IFNγ), 10 to 50%. The negative-log Ki (pKi) on GST-tagged PTPN2 protein is not above 7.00.
In the case of `O=C1CN(c2c(O)cc(Nc3ncc(Cl)cn3)cc2F)S(=O)(=O)N1` [Compound 5, 5-[4-[(5-chloropyrimidin-2-yl)amino]-2-fluoro-6-hydroxy-phenyl]-1,1-dioxo-1,2,5-thiadiazolidin-3-one], the negative logarithm of the IC50 (pIC50) in series [1] (setting [3]) and in series [1] (setting [4]) was less than 4.00 each time. Also, the inhibition at 100 µM in series [1] (setting [5]) and in series [1] (setting [6]) was 10 to 50% each time. This molecule also showed a negative logarithm of the Ki (pKi) on GST-tagged PTPN2 protein of 7.00 to 7.30.
As for `Cc1cnc(Nc2cc(O)c(N3CC(=O)NS3(=O)=O)c(F)c2)nc1O` [Compound 6, 5-[2-fluoro-6-hydroxy-4-[(4-hydroxy-5-methyl-pyrimidin-2-yl)amino]phenyl]-1,1-dioxo-1,2,5-thiadiazolidin-3-one], the pIC50 in series [1] (setting [3]) is less than 4.00; in series [1] (setting [4]), 4.00 to 4.30. Also, the inhibition at 100 µM in series [1] (setting [5]) is less than 10%; in series [1] (setting [6]) it was 50 to 75%. This molecule had a pKi at GST-tagged PTPN2 protein of more than 9.00.
The matching figures for `O=C1CN(c2c(O)cc(Nc3nc(O)c4ccccc4n3)cc2F)S(=O)(=O)N1` [Compound 8, 5-[2-fluoro-6-hydroxy-4-[(4-hydroxyquinazolin-2-yl)amino]phenyl]-1,1-dioxo-1,2,5-thiadiazolidin-3-one]: less than 4.00, 4.30 to 5.00, 10 to 50%, 50 to 75% and more than 9.00.
Regarding `CC(C)Cc1cnc(Nc2cc(O)c(N3CC(=O)NS3(=O)=O)c(F)c2)nc1O` [Compound 12, 5-[2-fluoro-6-hydroxy-4-[(4-hydroxy-5-isobutyl-pyrimidin-2-yl)amino]phenyl]-1,1-dioxo-1,2,5-thiadiazolidin-3-one], the negative-log IC50 (pIC50) was less than 4.00 in series [1] (setting [3]) and 4.30 to 5.00 in series [1] (setting [4]). Further, the inhibition at 100 µM in series [1] (setting [5]) fell in the range of 10 to 50%; in series [1] (setting [6]) it was 50 to 75%. The pKi on GST-tagged PTPN2 protein was more than 9.00.
For `CC(C)Cc1c(O)nc(Nc2cc(O)c(N3CC(=O)NS3(=O)=O)c(F)c2)nc1O` [Compound 13, 5-[4-[(4,6-dihydroxy-5-isobutyl-pyrimidin-2-yl)amino]-2-fluoro-6-hydroxy-phenyl]-1,1-dioxo-1,2,5-thiadiazolidin-3-one], the negative-log IC50 (pIC50) in series [1] (setting [3]) is less than 4.00; in series [1] (setting [4]), 4.30 to 5.00. Also, the inhibition at 100 µM in series [1] (setting [5]) was 10 to 50%; in series [1] (setting [6]), 50 to 75%. The molecule also gave a pKi on GST-tagged PTPN2 protein of 8.30 to 9.00.
On the same counts, the results for `CCCc1c(C)nc(Nc2cc(O)c(N3CC(=O)NS3(=O)=O)c(F)c2)nc1O` [Compound 21, 5-[2-fluoro-6-hydroxy-4-[(4-hydroxy-6-methyl-5-propyl-pyrimidin-2-yl)amino]phenyl]-1,1-dioxo-1,2,5-thiadiazolidin-3-one] are less than 4.00, 4.30 to 5.00, 10 to 50%, 50 to 75% and 8.30 to 9.00.
Take `O=C1CN(c2c(O)cc(Nc3nc(O)c4c(n3)CCCC4)cc2F)S(=O)(=O)N1` [Compound 39, 5-[2-fluoro-6-hydroxy-4-[(4-hydroxy-5,6,7,8-tetrahydroquinazolin-2-yl)amino]phenyl]-1,1-dioxo-1,2,5-thiadiazolidin-3-one]: the results for the pIC50 in series [1] (setting [3]) and in series [1] (setting [4]) were less than 4.00 and 4.30 to 5.00, respectively. For the same molecule, the inhibition at 100 µM in series [1] (setting [5]) was 10 to 50%; in series [1] (setting [6]) it was 50 to 75%. Besides, on GST-tagged PTPN2 protein, the negative-log Ki (pKi) was more than 9.00.
The matching figures for `CC(C)Cc1c(O)nc(Nc2cc(O)c(N3CC(=O)NS3(=O)=O)c(F)c2)nc1Cl` [Compound 42, 5-[4-[(4-chloro-6-hydroxy-5-isobutyl-pyrimidin-2-yl)amino]-2-fluoro-6-hydroxy-phenyl]-1,1-dioxo-1,2,5-thiadiazolidin-3-one]: less than 4.00, 4.30 to 5.00, 10 to 50%, 75 to 100% and more than 9.00.

The values are drawn from patent publication US20250313554A1, “PTPN2 INHIBITORS” (Ness Therapeutics, Inc., priority 2022, published 2025).
